Here are results for 31 compounds from PMC7918738, “Microtubule Destabilizing Sulfonamides as an Alternative to Taxane-Based Chemotherapy” (International Journal of Molecular Sciences, 2021).

The test system of test [1] is HT-29 (colon adenocarcinoma). Nature of the test: Antiproliferative activity against CA-4-resistant HT-29 with or without verapamil (sensitivity to MDR pumps, XTT). Format: cell-based, human. The settings on record: Homo sapiens, read-out: Antiproliferative Activity IC50 HT-29. From the text: Detecting changes in drug potency when inhibiting MDR-mediated efflux reflect that these transporters reduce the intracellular drug concentration. HT-29 has been reported to express moderate levels of MDR1, accounting for a resistant phenotype. A comparison of the antiproliferative IC50 values of each MDS in the presence or absence of verapamil provides an estimate of the susceptibility of each compound to efflux pumps.
(§1) MCF7 (human breast carcinoma), SKOV-3 (human ovarian carcinoma), OVCAR-3 (human ovarian carcinoma), OVCAR-8 (human ovarian carcinoma), and HeLa (human cervical carcinoma) cell lines were cultured in Dulbecco’s Modified Eagle’s Medium (DMEM) (Gibco, Thermo Fischer Scientific) containing 10% (v/v) heat-inactivated fetal bovine serum (HIFBS) (Lonza-Cambrex, Karlskoga, Sweden), 2 mM L-glutamine (Lonza-Cambrex, Karlskoga, Sweden), 100 μg/mL streptomycin, and 100 IU/mL penicillin (Lonza-Cambrex) at 37 °C in humidified 95% air and 5% CO2. HT-29 (human colon carcinoma), IGROV-1 (human ovarian carcinoma), and A2780 (human ovarian carcinoma) cell lines were cultured in RPMI 1640 medium (Gibco, Thermo Fischer Scientific) supplemented with 10% HIFBS, 100 μg/mL streptomycin, and 100 IU/mL penicillin at 37 °C in humidified 95% air and 5% CO2 atmosphere. The presence of mycoplasma was routinely checked with MycoAlert kit (Lonza-Cambrex) and only mycoplasma-free cells were used in the experiments. Ovarian tumor cell lines were originally acquired from Dr Atanasio Pandiella from Centro de Investigación del Cáncer (CIC), Salamanca, Spain. HeLa, HT-29 and MCF7 tumor cell lines were provided by Dr Faustino Mollinedo from Centro de Investigaciones Biológicas Margarita Salas, Madrid, Spain.
MCF7, HeLa, and HT-29 cell proliferation, when treated with the corresponding compounds, were determined using the XTT (sodium 3’-[1(phenylaminocarbonyl)-3,4-tetrazolium]-bis(4-methoxy-6-nitro)-benzenesulfonic acid hydrate) cell proliferation kit (Roche Molecular Biochemicals, Mannheim, Germany). A freshly prepared mixture of XTT labeling reagent with 0.02% (v/v) PMS (N-methyl-dibenzopyrazine methyl sulfate) electron coupling reagent was added to cells (50 µL/well in 96-well plates, total volume of 160 µL/well). Cells were incubated under standard culture conditions for 4 h (MCF7 and HeLa) or 6 h (HT-29). The absorbance of the formazan product generated was measured at 450 nm using a multi-well plate reader. SKOV-3, OVCAR-3, OVCAR-8, IGROV-1, A-2780 cell proliferation, when treated with the corresponding compound, were determined using MTT (3-(4,5-dimethylthiazol-2-yl)-2,5-diphenyl-2H-tetrazolium bromide) (Sigma-Aldrich, St. Louis, MO, USA). MTT in Phosphate Buffer Saline (PBS) (5 mg/ml) was added to cells (110 µL/well in 24-well plates, total volume of 1110 µL/well). After 1 hour of incubation, the medium was aspirated, and formazan violet crystals were dissolved in dimethyl sulfoxide (DMSO) (500 µL/well). Absorbance was measured at 570 nm in a plate reader (Ultra Evolution, Tecan, Männedorf, Suiza). To determine cell viability, cells in exponential growth phase were seeded (100 µL/well in 96-well plates and 1000 µL/well in 24-well plates) with appropriate cell line concentration (1.5·10^4 cells/mL for MCF7 and HeLa, 3·10^4 cells/mL for HT-29, and 1·10^4 cells/mL for SKOV-3, OVCAR-3, OVCAR-8, IGROV-1, and A-2780) in complete RPMI 1640 or DMEM medium at 37°C and 5% CO2 atmosphere. After 24 h incubation, to allow cells to attach to the plates, all compounds were added at 1 µM concentration and the effect on the proliferation was evaluated 72 h post-treatment. […] Non-linear curves fitting the experimental data were carried out for each compound. Compounds were dissolved in DMSO and the final solvent concentrations never exceeded 0.5% (v/v). The control wells included […] with 0.5% (v/v) DMSO and the positive control. 10 µM verapamil was included as a control for the HT-29 cell line.

Test [2] deals with MCF7 (breast adenocarcinoma). Nature of the test: Antiproliferative activity against MCF7 (XTT colorimetric method). In kind it is cell-based. Particulars: Homo sapiens, 72 h treatment. On the procedure: The in vitro antiproliferative activity of MDS at 1 µM after 72 h treatments was evaluated by a colorimetric method against the human tumor cell lines HeLa (cervix epithelioid carcinoma) and MCF7 (breast adenocarcinoma). Compounds showing more than 40% inhibition at 1 µM in at least three independent assays were evaluated in a range of concentrations between 0.1 nM and 10 µM for the determination of half-maximal inhibitory concentrations (IC50) (Table 1). Paclitaxel, CA-4, and ABT-751 were used as references.
as §1
MCF7, HeLa, and HT-29 cell proliferation, when treated with the corresponding compounds, were determined using the XTT (sodium 3’-[1(phenylaminocarbonyl)-3,4-tetrazolium]-bis(4-methoxy-6-nitro)-benzenesulfonic acid hydrate) cell proliferation kit (Roche Molecular Biochemicals, Mannheim, Germany). A freshly prepared mixture of XTT labeling reagent with 0.02% (v/v) PMS (N-methyl-dibenzopyrazine methyl sulfate) electron coupling reagent was added to cells (50 µL/well in 96-well plates, total volume of 160 µL/well). Cells were incubated under standard culture conditions for 4 h (MCF7 and HeLa) or 6 h (HT-29). The absorbance of the formazan product generated was measured at 450 nm using a multi-well plate reader. SKOV-3, OVCAR-3, OVCAR-8, IGROV-1, A-2780 cell proliferation, when treated with the corresponding compound, were determined using MTT (3-(4,5-dimethylthiazol-2-yl)-2,5-diphenyl-2H-tetrazolium bromide) (Sigma-Aldrich, St. Louis, MO, USA). MTT in Phosphate Buffer Saline (PBS) (5 mg/ml) was added to cells (110 µL/well in 24-well plates, total volume of 1110 µL/well). After 1 hour of incubation, the medium was aspirated, and formazan violet crystals were dissolved in dimethyl sulfoxide (DMSO) (500 µL/well). Absorbance was measured at 570 nm in a plate reader (Ultra Evolution, Tecan, Männedorf, Suiza). To determine cell viability, cells in exponential growth phase were seeded (100 µL/well in 96-well plates and 1000 µL/well in 24-well plates) with appropriate cell line concentration (1.5·10^4 cells/mL for MCF7 and HeLa, 3·10^4 cells/mL for HT-29, and 1·10^4 cells/mL for SKOV-3, OVCAR-3, OVCAR-8, IGROV-1, and A-2780) in complete RPMI 1640 or DMEM medium at 37°C and 5% CO2 atmosphere. After 24 h incubation, to allow cells to attach to the plates, all compounds were added at 1 µM concentration and the effect on the proliferation was evaluated 72 h post-treatment. Compounds showing antiproliferative effects at tested concentration were selected for IC50 calculation (50% inhibitory concentration with respect to the untreated controls) from 10^−5 to 10^−10 M concentration. Non-linear curves fitting the experimental data were carried out for each compound. […]

The mark [3] stands for this setting: HT-29, 72 h, XTT, without verapamil.

Like-named read-outs stand apart in the source and are kept apart here. Bounds are passed on as bounds.

Regarding `COc1cc(N(Cc2ccccc2)S(=O)(=O)c2ccc(N(C)C)cc2)cc(OC)c1OC` [Compound 35a], the IC50 in test [1] (setting [3]) was found to be 165 nM; in test [2] it was 100 nM.

Take `COc1ccc(S(=O)(=O)N(c2cc(OC)c(OC)c(OC)c2)S(=O)(=O)c2ccc(OC)cc2)cc1` [Compound 1b]: the IC50 in test [1] (setting [3]) and in test [2] was greater than 1000 nM each time.

In the case of `COc1ccc(S(=O)(=O)N(Cc2ccccc2)c2cc(OC)c(OC)c(OC)c2)cc1` [Compound 9], the values for the half-maximal inhibitory concentration (IC50) in test [1] (setting [3]) and in test [2] were greater than 1000 nM and 830 nM, respectively.

As to `COc1ccc(S(=O)(=O)N(C)c2cc(OC)c(OC)c(OC)c2)cc1` [Compound 2a], the IC50 in test [1] (setting [3]) worked out at 143 nM; in test [2], 127 nM.

Turning to `CCN(c1cc(OC)c(OC)c(OC)c1)S(=O)(=O)c1ccc(N(C)C)cc1` [Compound 30], the IC50 in test [1] (setting [3]) was found to be 460 nM; in test [2] it was 81 nM.

Turning to `CCN(c1cc(OC)c(OC)c(OC)c1)S(=O)(=O)c1ccc(OC)c(N)c1` [Compound 43], the IC50 in test [1] (setting [3]) was found to be 63 nM; in test [2], 14 nM.

`CCOC(=O)CN(c1cc(OC)c(OC)c(OC)c1)S(=O)(=O)c1ccc(N(C)C)cc1` [Compound 33]: the results for the half-maximal inhibitory concentration (IC50) in test [1] (setting [3]) and in test [2] were 863 nM and 91 nM, respectively.

As for `COc1ccc(S(=O)(=O)N(C(=O)OCc2ccccc2)c2cc(OC)c(OC)c(OC)c2)cc1` [Compound 10], the half-maximal inhibitory concentration (IC50) in test [1] (setting [3]) and in test [2] was greater than 1000 nM each time.

As to `COc1cc(N(C)S(=O)(=O)c2ccc(N(C)C)cc2)cc(OC)c1OC` [Compound 29a], the concentration for half-maximal inhibition (IC50) in test [1] (setting [3]) came out at 103 nM; in test [2], 30 nM.

For the compound `CCOC(=O)CNc1cc(S(=O)(=O)N(C)c2cc(OC)c(OC)c(OC)c2)ccc1OC` [Compound 46], the 50% inhibitory concentration (IC50) in test [1] (setting [3]) stood at 113 nM; in test [2], 48 nM.

Take `COc1cc(N(C(=O)OCc2ccccc2)S(=O)(=O)c2ccc(N(C)C)cc2)cc(OC)c1OC` [Compound 35b]: the figures for the IC50 in test [1] (setting [3]) and in test [2] were 690 nM and greater than 1000 nM, respectively.

Regarding `COc1ccc(/C=C\c2cc(OC)c(OC)c(OC)c2)cc1O` [Combretastatin A-4, reference compound], the values for the IC50 in test [1] (setting [3]) and in test [2] were 305 nM and 1 nM, respectively.

Turning to `COc1ccc(S(=O)(=O)N(C)c2cc(OC)c(OC)c(OC)c2)cc1N(C)C` [Compound 48b], the IC50 in test [1] (HT-29, 72 h) was greater than 1000 nM; in test [2], greater than 1000 nM.

For the compound `CCOC(=O)CN(c1cc(OC)c(OC)c(OC)c1)S(=O)(=O)c1ccc(OC)cc1` [Compound 7], the concentration for half-maximal inhibition (IC50) in test [1] (setting [3]) came to 237 nM; in test [2], 335 nM.

Consider `COc1ccc(S(=O)(=O)Nc2cc(OC)c(OC)c(OC)c2[N+](=O)[O-])cc1` [Compound 11], for which the 50% inhibitory concentration (IC50) in test [1] (setting [3]) and in test [2] was greater than 1000 nM in each case.

For `COc1ccc(S(=O)(=O)N(CC#N)c2cc(OC)c(OC)c(OC)c2)cc1` [Compound 6], the half-inhibitory concentration (IC50) in test [1] (setting [3]) turned out to be 230 nM; in test [2], 275 nM.

With `COc1ccc(S(=O)(=O)N(C(C)=O)c2cc(OC)c(OC)c(OC)c2)cc1` [Compound 5], the concentration for half-maximal inhibition (IC50) was found to be 747 nM in test [1] (setting [3]) and 270 nM in test [2].

For the compound `COc1cc(N(C(C)=O)S(=O)(=O)c2ccc(N(C)C)cc2)cc(OC)c1OC` [Compound 31], the IC50 in test [1] (setting [3]) was found to be 140 nM; in test [2], 135 nM.

As for `COc1ccc(S(=O)(=O)Nc2cc(OC)c(OC)c(OC)c2N(C)C)cc1` [Compound 18], the half-maximal inhibitory concentration (IC50) in test [1] (setting [3]) and in test [2] was greater than 1000 nM in each case.

`CCN(c1cc(OC)c(OC)c(OC)c1)S(=O)(=O)c1ccc(OC)cc1` [Compound 3]: the IC50 in test [1] (setting [3]) turned out to be 913 nM; in test [2], 87 nM.

`COc1ccc(S(=O)(=O)N(CCBr)c2cc(OC)c(OC)c(OC)c2)cc1` [Compound 4]: the IC50 is 503 nM in test [1] (HT-29, 72 h) and 340 nM in test [2].

In the case of `COc1cc(NS(=O)(=O)c2ccc(N)cc2)cc(OC)c1OC` [Compound 26], the IC50 in test [1] (setting [3]) and in test [2] was greater than 1000 nM throughout.

As for `COc1ccc(S(=O)(=O)N(CC(=O)O)c2cc(OC)c(OC)c(OC)c2)cc1` [Compound 8], the concentration for half-maximal inhibition (IC50) in test [1] (setting [3]) and in test [2] was greater than 1000 nM in each case.

Consider `COc1cc(NS(=O)(=O)c2ccc(NC=O)cc2)cc(OC)c1OC` [Compound 36], for which the half-inhibitory concentration (IC50) in test [1] (setting [3]) and in test [2] was greater than 1000 nM each time.

Consider `COc1ccc(S(=O)(=O)N(CC#N)c2cc(OC)c(OC)c(OC)c2)cc1N` [Compound 44], for which the half-inhibitory concentration (IC50) in test [1] (setting [3]) worked out at 61 nM; in test [2], 8 nM.

As for `CCOC(=O)CNc1cc(S(=O)(=O)N(CC(=O)OCC)c2cc(OC)c(OC)c(OC)c2)ccc1OC` [Compound 47], the concentration for half-maximal inhibition (IC50) in test [1] (setting [3]) and in test [2] was greater than 1000 nM each time.

Regarding `COc1ccc(S(=O)(=O)N(C)c2cc(OC)c(OC)c(OC)c2N)cc1` [Compound 13], the half-maximal inhibitory concentration (IC50) in test [1] (setting [3]) and in test [2] was greater than 1000 nM in each case.

Consider `CNc1ccc(S(=O)(=O)Nc2cc(OC)c(OC)c(OC)c2)cc1` [Compound 37], for which the IC50 in test [1] (setting [3]) was 807 nM; in test [2], greater than 1000 nM.

`COc1cc(NS(=O)(=O)c2ccc([N+](=O)[O-])cc2)cc(OC)c1OC` [Compound 25]: the IC50 in test [1] (setting [3]) and in test [2] was greater than 1000 nM each time.

With `COc1ccc(S(=O)(=O)N(C)c2cc(OC)c(OC)c(OC)c2N(C)C)cc1` [Compound 19], the IC50 in test [1] (setting [3]) and in test [2] was greater than 1000 nM each time.

As to `COc1cc(N(CC(=O)O)S(=O)(=O)c2ccc(N(C)C)cc2)cc(OC)c1OC` [Compound 34], the half-maximal inhibitory concentration (IC50) in test [1] (setting [3]) and in test [2] was greater than 1000 nM in each case.
